Drawing on US9353104B2, “Substituted pyridizinone derivatives as PDE10 inhibitors” (priority 2013, dated 2016), this text covers Ki for 12 molecules.

Molecules are shown by their SMILES. A value given as a limit tells only on which side of the number the result lay.

The target in this assay is human PDE10A2 (Homo sapiens (Human), UniProt Q9Y233). Description: PDE10 fluorescence polarization (IMAP FP) inhibition assay. Particulars: human PDE10A2 lysate, FAM-labeled cAMP 50 nM, room temperature; read-out: PDE10A Ki. The class given is biochemical. The gist of the method: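 Cytoplasmic lysate of AD293 cells transiently expressing human PDE10A2, diluted for ~20% conversion of 50 nM FAM-cAMP, in 10 mM Tris pH 7.2, 10 mM MgCl2, 1 mM DTT, 0.01% Tween-20. Reaction 30 min at room temperature, read by IMAP fluorescence polarization; 10-point 3-fold titrations, 1% DMSO as 0%, reference PDE10 inhibitor at 5,000× Ki as 100%.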
human PDE10A2, sequence (Q9Y233 267-1055): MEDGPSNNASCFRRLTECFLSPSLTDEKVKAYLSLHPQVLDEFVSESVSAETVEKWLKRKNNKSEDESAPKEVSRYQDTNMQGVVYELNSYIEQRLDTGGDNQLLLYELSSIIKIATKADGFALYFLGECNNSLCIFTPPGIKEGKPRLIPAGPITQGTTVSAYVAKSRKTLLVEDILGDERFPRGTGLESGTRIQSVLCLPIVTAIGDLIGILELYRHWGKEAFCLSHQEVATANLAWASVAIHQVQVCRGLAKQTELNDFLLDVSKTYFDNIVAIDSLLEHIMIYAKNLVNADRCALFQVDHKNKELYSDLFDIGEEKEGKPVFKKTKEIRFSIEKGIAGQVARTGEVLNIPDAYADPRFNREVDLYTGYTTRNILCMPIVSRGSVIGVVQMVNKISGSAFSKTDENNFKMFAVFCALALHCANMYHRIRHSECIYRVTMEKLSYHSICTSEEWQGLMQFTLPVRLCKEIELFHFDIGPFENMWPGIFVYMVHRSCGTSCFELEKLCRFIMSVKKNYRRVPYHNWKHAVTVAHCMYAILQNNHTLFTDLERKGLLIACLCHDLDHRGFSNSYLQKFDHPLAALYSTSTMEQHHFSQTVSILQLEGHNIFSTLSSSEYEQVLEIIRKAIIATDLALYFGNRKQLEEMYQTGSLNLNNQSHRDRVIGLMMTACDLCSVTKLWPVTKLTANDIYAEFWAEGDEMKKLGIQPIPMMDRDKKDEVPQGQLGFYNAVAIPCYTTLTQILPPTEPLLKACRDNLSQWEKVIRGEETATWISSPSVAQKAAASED
(Polarisation of emitted light reports the rotation of a fluorescent probe.)
The term Ki denotes the dissociation constant of the complex between target and ligand, obtained from inhibition or displacement. Take `Cc1cccc([C@H]2C[C@@H]2COc2cc(NCc3cnn(C)c3)c(=O)n(C)n2)n1` [Example 117, 2-methyl-4-((1-methyl-1H-pyrazol-4-yl)methyl-amino)-6-(((1S,2S)-2-(6-methylpyridin-2-yl)cyclopropyl)methoxy) pyridazin-3(2H)-one]: the Ki came out at 89 pM.

Consider `COc1ccc([C@H]2C[C@@H]2COc2cc(NCc3cc(C)nn3C)c(=O)n(C)n2)nc1` [Example 132, 4-((1,3-dimethyl-1H-pyrazol-5-yl)methyl-amino)-6-(((1S,2S)-2-(5-methoxypyridin-2-yl)-cyclopropyl)methoxy)-2-methylpyridazin-3(2H)one], for which the Ki was found to be 2 pM.

Take `COc1ccc([C@H]2C[C@@H]2COc2cc(NCc3cccnc3)c(=O)n(C)n2)nc1` [Example 135, 6-(((1S,2S)-2-(5-methoxy-pyridin-2-yl)cyclopropyl-)methoxy)-2-methyl-4-(pyridin-3-ylmethylamino-)pyridazin-3(2H)-one]: the Ki was determined as 261 pM.

For the molecule `Cc1ccc([C@H]2C[C@@H]2COc2cc(NCc3c(Cl)c(C)nn3C)c(=O)n(C)n2)nc1` [Example 35, 4-((4-chloro-1,3-dimethyl-1H-pyrazol-5-yl)methylamino)-2-methyl-6-(((1S,2S)-2-(5-methylpyridin-2-yl)cyclopropyl)methoxy)-pyridazin-3(2H)-one], the Ki stood at 476 pM.

For the molecule `Cc1cc(CNc2cc(OC[C@H]3C[C@@H]3c3ccc(Cl)cn3)nn(C)c2=O)n(C)n1` [Example 33, 6-(((1S,2S)-2-(5-chloropyridin-2-yl)cyclopropyl)methoxy)-4-((1,3-dimethyl-1H-pyrazol-5-yl)methylamino)-2-methylpyridazin-3(2H)-one], the Ki was 20 pM.

With `Cc1nc(CNc2cc(OC[C@H]3C[C@@H]3c3ccn(C)n3)nn(C)c2=O)cs1` [Example 48], the Ki was greater than 100000 pM.

For `COc1ccc([C@H]2C[C@@H]2COc2cc(NCc3ccc(C)nc3C)c(=O)n(C)n2)nc1` [Example 50, 4-(((2,6-dimethylpyridin-3-yl)methyl)amino)-6-(((1S,2S)-2-(5-methoxypyridin-2-yl)cyclopropyl)methoxy)-2-methylpyridazin-3(2H)-one], the Ki came to 3 pM.

With `COc1ccc(CNc2cc(OC[C@H]3C[C@@H]3c3ccc(F)cn3)nn(C)c2=O)cc1` [Example 15, 6-(((1S,2S)-2-(5-fluoro-pyridin-2-yl)-cyclopropyl-)-methoxy)-4-(4-methoxy-benzylamino)-2-methyl-pyridazin-3(2H)-one], the Ki amounted to 1290 pM.

With `CN(C)c1c(CNc2cc(OC[C@H]3C[C@@H]3c3ccn(C)n3)nn(C)c2=O)cnn1C` [Example 82, 4-(((5-(dimethylamino)-1-methyl-1H-pyrazol-4-yl)methyl)amino)-2-methyl-6-(((1S,2S)-2-(1-methyl-1H-pyrazol-3-yl)cyclopropyl)methoxy)-pyridazin-3(2H)-one], the Ki amounted to 75000 pM.

On to `COc1ccc([C@H]2C[C@@H]2COc2cc(NCc3cncc(C)c3)c(=O)n(C)n2)nc1` [Example 67, 6-(((1S,2S)-2-(5-methoxypyridin-2-yl)cyclopropyl)methoxy)-2-methyl-4-(((5-methylpyridin-3-yl)methyl)amino)pyridazin-3(2H)-one], for which the Ki turned out to be 49 pM.

As to `Cc1ccc([C@H]2C[C@@H]2COc2cc(NCc3nnc(C)s3)c(=O)n(C)n2)nc1` [Example 1, 2-methyl-4-((5-methyl-1,3,4-thiadiazol-2-yl)methylamino)-6-(((1S,2S)-2-(5-methylpyridin-2-yl)cyclopropyl)methoxy)pyridazin-3(2H)-one], the Ki was 13 pM.

As for `Cc1cccc([C@H]2C[C@@H]2COc2cc(NCc3cc(C)nn3C)c(=O)n(C)n2)n1` [Example 116, 4-((1,3-dimethyl-1H-pyrazol-5-yl)methylamino)-2-methyl-6-(((1S,2S)-2-(6-methylpyridin-2-yl)cyclopropyl)methoxy) pyridazin-3(2H)-one], the Ki is 5 pM.
